Values quoted from earlier work as cited in US20220304303A1, “INSECT REPELLENT PATCHES” (The Natural Patch Company Pty Ltd, priority 2021, published 2022).

Conditions: products containing between 10% and 30% DEET, used as directed

## CCN(CC)C(=O)c1cccc(C)c1 [DEET, Diethyltoluamide]
  safety in use on children and adults: safe to use on children, as well as adults
